Measured values as given in US20240376090A1, “ISOXAZOLE DERIVATIVES AS MODULATORS OF THE 5-HT2A SEROTONIN RECEPTOR USEFUL FOR THE TREATMENT OF DISORDERED RELATED THERETO” (Arena Pharmaceuticals, Inc., priority 2020, published 2024).

Molecular target: 5-HT2A receptor (Homo sapiens (Human), UniProt P28223)
Assay: Radioligand binding assay ([3H]5-HT competition), 5-HT2A
Conditions: [3H]5-HT radioligand, membranes of HEK293 cells expressing recombinant 5-HT2A; Ki from IC50 by Cheng-Prusoff; read-out: 5-HT2A serotonin binding Ki value
Procedure: Competition binding experiments consisted of addition of 5 μL of serially diluted test compound, 50 μL of radioligand stock diluted in Assay Buffer (20 mM HEPES, pH 7.4, 10 mM MgCl2), and 145 μL of diluted membrane expressing the receptor of interest to 96-well microtiter plates, which were then incubated for one hour at room temperature. Assay incubations were terminated by rapid filtration through Perkin Elmer GF/C filtration plates under vacuum pressure using a 96-well Packard filtration apparatus, followed by washing the filter plates several times with ice cold Assay Buffer. Plates were then dried at 45° C. for a minimum of four hours. Finally, 25 μL of BetaScint scintillation cocktail was added to each well and the plates were counted in a Packard TopCount scintillation counter. In each competition study, test compounds were assayed at 10 concentrations with three replicates at each test concentration. Dose-response curves were constructed to determine IC50 values and these were converted to corresponding Ki values using the Cheng-Prusoff equation.

Sequence of 5-HT2A receptor (P28223 whole entry): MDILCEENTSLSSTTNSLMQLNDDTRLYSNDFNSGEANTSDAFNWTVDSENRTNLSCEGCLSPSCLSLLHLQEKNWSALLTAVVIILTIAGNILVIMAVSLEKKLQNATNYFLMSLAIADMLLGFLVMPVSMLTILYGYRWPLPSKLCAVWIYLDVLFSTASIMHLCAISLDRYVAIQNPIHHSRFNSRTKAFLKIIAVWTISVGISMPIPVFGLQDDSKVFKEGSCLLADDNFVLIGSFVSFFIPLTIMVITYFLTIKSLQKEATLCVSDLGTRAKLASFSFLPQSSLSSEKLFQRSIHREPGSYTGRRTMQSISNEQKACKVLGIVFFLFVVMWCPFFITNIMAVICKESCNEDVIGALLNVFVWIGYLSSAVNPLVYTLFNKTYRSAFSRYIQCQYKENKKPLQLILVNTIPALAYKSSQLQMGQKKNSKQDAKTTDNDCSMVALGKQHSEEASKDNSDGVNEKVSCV

Q: How did the Ki turn out when Cc1noc(C)c1-c1cc(NC(=O)C2CC2C2CC2)ccc1OCCN1CCCC1 (stereo not shown) [Compound 100, N-(3-(3,5-dimethylisoxazol-4-yl)-4-(2-(pyrrolidin-1-yl)ethoxy)phenyl)-[1,1′-bi(cyclopropane)]-2-carboxamide] was run?
A: The Ki was 2.89 nM.

Q: For CCCN(C)CCOc1ccc(NC(=O)C2CC2)cc1-c1c(C)noc1C [Compound 150, N-(3-(3,5-dimethylisoxazol-4-yl)-4-(2-(methyl(propyl)amino)ethoxy)phenyl)cyclopropanecarboxamide], which Ki is on record?
A: The Ki was 13.5 nM.

Q: With Cc1noc(C)c1-c1cc(NC(=O)Cc2cncc(F)c2)ccc1OCCN1CCC1 [Compound 128, N-(4-(2-(azetidin-1-yl)ethoxy)-3-(3,5-dimethylisoxazol-4-yl)phenyl)-2-(5-fluoropyridin-3-yl)acetamide] as the compound, how does the Ki read?
A: The Ki was 14.6 nM.

Q: How did the Ki turn out when COC1(CC(=O)Nc2ccc(OC[C@H]3CCCCN3)c(-c3c(C)noc3C)c2)CC1 [Compound 228, (R)—N-(3-(3,5-dimethylisoxazol-4-yl)-4-(piperidin-2-ylmethoxy)phenyl)-2-(1-methoxycyclopropyl)acetamide] was run?
A: Its Ki is 66.4 nM.

Q: How did the Ki turn out when Cc1noc(C)c1-c1cc(NC(=O)c2cnoc2C)ccc1OC[C@H]1CCCCN1 [Compound 184, (R)—N-(3-(3,5-dimethylisoxazol-4-yl)-4-(piperidin-2-ylmethoxy)phenyl)-5-methylisoxazole-4-carboxamide] was run?
A: The Ki was 10.5 nM.

Q: How did the Ki turn out when Cc1noc(C)c1-c1cc(NC(=O)c2ccnn2C)ccc1OC[C@H]1CCCCN1 [Compound 177, N-[3-(3,5-dimethylisoxazol-4-yl)-4-[[(2R)-2-piperidyl]methoxy]phenyl]-2-methyl-pyridinerazole-3-carboxamide] was run?
A: Its Ki is 4.22 nM.

Q: Cc1noc(C)c1-c1cc(NC(=O)c2ccnn2C)ccc1OCCN1CCC1 [Compound 118, N-(4-(2-(azetidin-1-yl)ethoxy)-3-(3,5-dimethylisoxazol-4-yl)phenyl)-1-methyl-1H-pyrazole-5-carboxamide] was tested. Which Ki did it give?
A: Its Ki is 18.9 nM.

Q: How did the Ki turn out when CCN1CC(Oc2ccc(NC(=O)C3CC3)cc2-c2c(C)noc2C)C1 [Compound 133, N-(3-(3,5-dimethylisoxazol-4-yl)-4-((1-ethylazetidin-3-yl)oxy)phenyl)cyclopropanecarboxamide] was run?
A: The Ki was 51.3 nM.

Q: Which Ki does the source give for Cc1noc(C)c1-c1cc(NC(=O)c2cnsc2)ccc1OC[C@H]1CCCCN1 [Compound 186, (R)—N-(3-(3,5-dimethylisoxazol-4-yl)-4-(piperidin-2-ylmethoxy)phenyl)isothiazole-4-carboxamide] here?
A: Its Ki is 7.71 nM.

Q: For Cc1noc(C)c1-c1cc(NC(=O)C2CC23CCOCC3)ccc1OC[C@H]1CCCCN1 (stereo partly drawn) [Compound 203, N-(3-(3,5-dimethylisoxazol-4-yl)-4-(((R)-piperidin-2-yl)methoxy)phenyl)-6-oxaspiro[2.5]octane-1-carboxamide], which Ki is on record?
A: The Ki was 27.8 nM.

Q: Cc1noc(C)c1-c1cc(NC(=O)C2CC2)ccc1OC[C@@H]1CCCN1 [Compound 176, (S)—N-(3-(3,5-dimethylisoxazol-4-yl)-4-(pyrrolidin-2-ylmethoxy)phenyl)cyclopropanecarboxamide] was tested. Which Ki did it give?
A: The Ki was 395 nM.

Q: Cc1noc(C)c1-c1cc(NC(=O)c2ccccc2)ccc1OCCN1CCC1 [Compound 120, N-(4-(2-(azetidin-1-yl)ethoxy)-3-(3,5-dimethylisoxazol-4-yl)phenyl)benzamide] was tested. Which Ki did it give?
A: Its Ki is 9.41 nM.

Q: How did the Ki turn out when COC1(CC(=O)Nc2ccc(OC[C@H]3CCCCN3)c(-c3c(C)noc3C)c2)CCC1 [Compound 205, (R)—N-(3-(3,5-dimethylisoxazol-4-yl)-4-(piperidin-2-ylmethoxy)phenyl)-2-(1-methoxycyclobutyl)acetamide] was run?
A: Its Ki is 105 nM.

Q: With CO[C@@H]1CCN(CCOc2ccc(NC(=O)C3CC3)cc2-c2c(C)noc2C)C1 [Compound 145, (R)—N-(3-(3,5-dimethylisoxazol-4-yl)-4-(2-(3-methoxypyrrolidin-1-yl)ethoxy)phenyl)cyclopropanecarboxamide] as the compound, how does the Ki read?
A: Its Ki is 5.51 nM.

Q: For Cc1noc(C)c1-c1cc(NC(=O)C2CC2)ccc1OCCN1CCC12COC2 [Compound 157, N-[3-(3,5-dimethylisoxazol-4-yl)-4-[2-(6-oxa-1-azaspiro[3.3]heptan-1-yl)ethoxy]phenyl]cyclopropanecarboxamide], which Ki is on record?
A: The Ki was 2070 nM.

Q: How did the Ki turn out when Cc1nc(C(=O)Nc2ccc(OC[C@H]3CCCCN3)c(-c3c(C)noc3C)c2)c(C)s1 [Compound 210, (R)—N-(3-(3,5-dimethylisoxazol-4-yl)-4-(piperidin-2-ylmethoxy)phenyl)-2,5-dimethylthiazole-4-carboxamide] was run?
A: Its Ki is 86.3 nM.

Q: Which Ki does the source give for Cc1ncoc1C(=O)Nc1ccc(OCCN2CCCC2)c(-c2c(C)noc2C)c1 [Compound 112, N-(3-(3,5-dimethylisoxazol-4-yl)-4-(2-(pyrrolidin-1-yl)ethoxy)phenyl)-4-methyloxazole-5-carboxamide] here?
A: Its Ki is 14.1 nM.

Q: For Cc1noc(C)c1-c1cc(NC(=O)C2CC2)ccc1OC[C@@H]1CCCCN1 [Compound 170, (S)—N-(3-(3,5-dimethylisoxazol-4-yl)-4-(piperidin-2-ylmethoxy)phenyl)cyclopropanecarboxamide], which Ki is on record?
A: The Ki was 49.6 nM.

Q: With Cc1noc(C)c1-c1cc(NC(=O)C2(F)CC2)ccc1O[C@H]1CCNC1 [Compound 239, (S)—N-(3-(3,5-dimethylisoxazol-4-yl)-4-(pyrrolidin-3-yloxy)phenyl)-1-fluorocyclopropane-1-carboxamide] as the compound, how does the Ki read?
A: The Ki was 59.4 nM.

Q: For Cc1cnoc1C(=O)Nc1ccc(OCCN2CCCC2)c(-c2c(C)noc2C)c1 [Compound 111, N-(3-(3,5-dimethylisoxazol-4-yl)-4-(2-(pyrrolidin-1-yl)ethoxy)phenyl)-4-methylisoxazole-5-carboxamide], which Ki is on record?
A: The Ki was 23.8 nM.

Q: Cc1noc(C)c1-c1cc(NC(=O)c2ncoc2C)ccc1OC[C@H]1CCCCN1 [Compound 185, (R)—N-(3-(3,5-dimethylisoxazol-4-yl)-4-(piperidin-2-ylmethoxy)phenyl)-5-methyloxazole-4-carboxamide] was tested. Which Ki did it give?
A: Its Ki is 8.77 nM.

Q: Which Ki does the source give for Cc1noc(C)c1-c1cc(NC(=O)c2ccnn2C)ccc1OCCN1CCCC1 [Compound 116, N-[3-(3,5-dimethylisoxazol-4-yl)-4-(2-pyrrolidin-1-ylethoxy)phenyl]-2-methyl-pyrazole-3-carboxamide] here?
A: Its Ki is 6.15 nM.

Q: With Cc1noc(C)c1-c1cc(NC(=O)c2ncsc2C)ccc1OC[C@H]1CCCCN1 [Compound 188, (R)—N-(3-(3,5-dimethylisoxazol-4-yl)-4-(piperidin-2-ylmethoxy)phenyl)-5-methylthiazole-4-carboxamide] as the compound, how does the Ki read?
A: Its Ki is 4.5 nM.

Q: How did the Ki turn out when Cc1noc(C)c1-c1cc(NC(=O)C2CC2)ccc1O[C@@H]1CCCNC1 [Compound 179, (R)—N-(3-(3,5-dimethylisoxazol-4-yl)-4-(piperidin-3-yloxy)phenyl)cyclopropanecarboxamide] was run?
A: Its Ki is 85.9 nM.

Q: Cc1noc(C)c1-c1cc(NC(=O)c2ccccc2)ccc1OCCN1C[C@@H]2C[C@H]1CO2 [Compound 161, N-[3-(3,5-dimethylisoxazol-4-yl)-4-[2-[(1S,4S)-2-oxa-5-azabicyclo[2.2.1]heptan-5-yl]ethoxy]phenyl]benzamide] was tested. Which Ki did it give?
A: Its Ki is 6.4 nM.

Q: With Cc1noc(C)c1-c1cc(NC(=O)c2ccnn2C)ccc1OCCN1C[C@@H]2C[C@H]1CO2 [Compound 163, N-[3-(3,5-dimethylisoxazol-4-yl)-4-[2-[(1S,4S)-2-oxa-5-azabicyclo[2.2.1]heptan-5-yl]ethoxy]phenyl]-2-methyl-pyrazole-3-carboxamide] as the compound, how does the Ki read?
A: Its Ki is 6.73 nM.

Q: Which Ki does the source give for Cc1noc(C)c1-c1cc(NC(=O)C2CC2)ccc1OCCN1CCC2(CC1)CNC2=O [Compound 139, N-(3-(3,5-dimethylisoxazol-4-yl)-4-(2-(1-oxo-2,7-diazaspiro[3.5]nonan-7-yl)ethoxy)phenyl)cyclopropanecarboxamide] here?
A: Its Ki is 124 nM.

Q: For Cc1noc(C)c1-c1cc(NC(=O)C2CC2)ccc1OC[C@@H]1COCCN1 [Compound 171, (S)—N-(3-(3,5-dimethylisoxazol-4-yl)-4-(morpholin-3-ylmethoxy)phenyl)cyclopropanecarboxamide], which Ki is on record?
A: Its Ki is 184 nM.

Q: With CC(=O)N1CCN(CCOc2ccc(NC(=O)C3CC3)cc2-c2c(C)noc2C)CC1 [Compound 168, N-[4-[2-(4-acetylpiperazin-1-yl)ethoxy]-3-(3,5-dimethylisoxazol-4-yl)phenyl]cyclopropanecarboxamide] as the compound, how does the Ki read?
A: The Ki was 12.2 nM.

Q: With Cc1noc(C)c1-c1cc(NC(=O)C2CC2)ccc1O[C@H]1CCCNC1 [Compound 178, N-[3-(3,5-dimethylisoxazol-4-yl)-4-[[(3S)-3-piperidyl]oxy]phenyl]cyclopropanecarboxamide] as the compound, how does the Ki read?
A: The Ki was 718 nM.

Q: How did the Ki turn out when Cc1noc(C)c1-c1cc(NC(=O)c2cccc(C(F)(F)F)c2)ccc1OCCN1CCOCC1 [Compound 165, N-[3-(3,5-dimethylisoxazol-4-yl)-4-(2-morpholinoethoxy)phenyl]-3-(trifluoromethyl)benzamide] was run?
A: Its Ki is 1.08 nM.

Q: With Cc1noc(C)c1-c1cc(NC(=O)c2cnoc2)ccc1OC[C@H]1CCCCN1 [Compound 182, N-[3-(3,5-dimethylisoxazol-4-yl)-4-[[(2R)-2-piperidyl]methoxy]phenyl]isoxazole-4-carboxamide] as the compound, how does the Ki read?
A: Its Ki is 61.5 nM.

Q: With Cc1noc(C)c1-c1cc(NC(=O)C2(F)CC2)ccc1OCCN1C[C@@H]2C[C@H]1CO2 [Compound 162, N-[3-(3,5-dimethylisoxazol-4-yl)-4-[2-[(1S,4S)-2-oxa-5-azabicyclo[2.2.1]heptan-5-yl]ethoxy]phenyl]-1-fluoro-cyclopropanecarboxamide] as the compound, how does the Ki read?
A: The Ki was 4.7 nM.

Q: With CCOC1CC1C(=O)Nc1ccc(OCCN2CCC2)c(-c2c(C)noc2C)c1 (stereo not shown) [Compound 131, N-(4-(2-(azetidin-1-yl)ethoxy)-3-(3,5-dimethylisoxazol-4-yl)phenyl)-2-ethoxycyclopropane-1-carboxamide] as the compound, how does the Ki read?
A: Its Ki is 77.7 nM.
